Data taken from patent US8901118B2, “Compounds and methods for kinase modulation, and indications therefor” (Plexxikon Inc., priority 2010, dated 2014).

Assays:
[1] = test system: Osteoclast precursor cells; experiment: Osteoclast differentiation assay (acid phosphatase readout); format: cell-based
[2] = Relative solubility by turbidity in aqueous buffers (pH 1.5, 4.5, 6.8, 7.4); format: physicochemical; settings: for turbidity threshold (L, M, H) 1.4: pH 1.5 (SGF); for turbidity threshold (L, M, H) 4.5: pH 4.5 (SIF); for turbidity threshold (L, M, H) 6.8: pH 6.8 (SIF); for turbidity threshold (L, M, H) 7.4: pH 7.4 (HEPES)
How it was run: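 Reported value: concentration at which optical density at 490, 535 and 650 nm passes 0.01, taken as the mean of the three wavelengths. Buffers were 0.5M NaCl pH 1.5, 0.05M NaH2PO4 pH 4.5 or 6.8, and 10 mM HEPES/150 mM NaCl pH 7.4, each receiving serial 1:1 DMSO dilutions of a 25 mM stock.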

Row | Structure (SMILES) | IC50 [1] [nM] | turbidity threshold (L, M, H) 1.4 [2] | turbidity threshold (L, M, H) 4.5 [2] | turbidity threshold (L, M, H) 6.8 [2] | turbidity threshold (L, M, H) 7.4 [2]
1 | Cc1cnc2[nH]cc(Cc3ccc(NC4CCCCC4)nc3F)c2c1 [Compound P-3008, cyclohexyl-[6-fluoro-5-(5-methyl-1H-pyrrolo[2,3-b]pyridin-3-ylmethyl)-pyridin-2-yl]-amine] | < 100 | – | – | – | –
2 | Nc1ncnc2[nH]cc(C(=O)c3ccc(Nc4ccc(C5CC5)nc4)nc3F)c12 [Compound P-4048, (4-amino-7H-pyrrolo[2,3-d]pyrimidin-5-yl)-[6-[(6-cyclopropyl-3-pyridyl)amino]-2-fluoro-3-pyridyl]methanone] | – | H (high solubility if the threshold concentration is >250 μm) | M (moderate solubility if the threshold concentration is 31.3 μM to 250 μM) | M (moderate solubility if the threshold concentration is 31.3 μM to 250 μM) | M (moderate solubility if the threshold concentration is 31.3 μM to 250 μM)
3 | CC(C)(O)CNc1ncnc2[nH]cc(C(=O)c3ccc(Nc4ccc(C5CC5)nc4)nc3F)c12 [Compound P-4049, [6-[(6-cyclopropyl-3-pyridyl)amino]-2-fluoro-3-pyridyl]-[4-[(2-hydroxy-2-methyl-propyl)amino]-7H-pyrrolo[2,3-d]pyrimidin-5-yl]methanone] | – | H (high solubility if the threshold concentration is >250 μm) | L (low solubility if the threshold concentration is <31.3 μM) | L (low solubility if the threshold concentration is <31.3 μM) | L (low solubility if the threshold concentration is <31.3 μM)
4 | CCNc1ncnc2[nH]cc(C(=O)c3ccc(NC4CCC(F)(F)CC4)nc3Cl)c12 [Compound P-4050, [2-chloro-6-[(4,4-difluorocyclohexyl)amino]-3-pyridyl]-[4-(ethylamino)-7H-pyrrolo[2,3-d]pyrimidin-5-yl]methanone] | – | H (high solubility if the threshold concentration is >250 μm) | L (low solubility if the threshold concentration is <31.3 μM) | L (low solubility if the threshold concentration is <31.3 μM) | L (low solubility if the threshold concentration is <31.3 μM)
5 | CCNc1ncnc2[nH]cc(C(=O)c3cnc(NC4CCC(F)(F)CC4)c(F)c3)c12 [Compound P-4051, [6-[(4,4-difluorocyclohexyl)amino]-5-fluoro-3-pyridyl]-[4-(ethylamino)-7H-pyrrolo[2,3-d]pyrimidin-5-yl]methanone] | – | H (high solubility if the threshold concentration is >250 μm) | M (moderate solubility if the threshold concentration is 31.3 μM to 250 μM) | M (moderate solubility if the threshold concentration is 31.3 μM to 250 μM) | L (low solubility if the threshold concentration is <31.3 μM)
6 | O=C(c1cnc(NC2CCC(F)(F)CC2)c(F)c1)c1c[nH]c2ncnc(NCC(F)(F)F)c12 [Compound P-4052, [6-[(4,4-difluorocyclohexyl)amino]-5-fluoro-3-pyridyl]-[4-(2,2,2-trifluoroethylamino)-7H-pyrrolo[2,3-d]pyrimidin-5-yl]methanone] | – | L (low solubility if the threshold concentration is <31.3 μM) | L (low solubility if the threshold concentration is <31.3 μM) | L (low solubility if the threshold concentration is <31.3 μM) | L (low solubility if the threshold concentration is <31.3 μM)
7 | O=C(c1cnc(NC2CCC(F)(F)CC2)c(F)c1)c1c[nH]c2ncnc(NC3CC3)c12 [Compound P-4053, [4-(cyclopropylamino)-7H-pyrrolo[2,3-d]pyrimidin-5-yl]-[6-[(4,4-difluorocyclohexyl)amino]-5-fluoro-3-pyridyl]methanone] | – | H (high solubility if the threshold concentration is >250 μm) | M (moderate solubility if the threshold concentration is 31.3 μM to 250 μM) | M (moderate solubility if the threshold concentration is 31.3 μM to 250 μM) | M (moderate solubility if the threshold concentration is 31.3 μM to 250 μM)
8 | CNc1ncnc2[nH]cc(C(=O)c3cnc(NC4CCC(F)(F)CC4)c(F)c3)c12 [Compound P-4054, [6-[(4,4-difluorocyclohexyl)amino]-5-fluoro-3-pyridyl]-[4-(methylamino)-7H-pyrrolo[2,3-d]pyrimidin-5-yl]methanone] | – | H (high solubility if the threshold concentration is >250 μm) | M (moderate solubility if the threshold concentration is 31.3 μM to 250 μM) | M (moderate solubility if the threshold concentration is 31.3 μM to 250 μM) | M (moderate solubility if the threshold concentration is 31.3 μM to 250 μM)
